Results published in patent US11666558B2, “Methods of treating intraocular pressure with activators of Tie-2” (EyePoint Pharmaceuticals, Inc., priority 2015, dated 2023).
Where “and” joins values, the source holds several entries; their conditions need not be identical. Equal entries are not always repeated. Structures can show the parent of a compound that is named as a salt. Where two headings read alike, the source gives them in different places.

Test: Ocular tissue concentrations (aqueous humor, vitreous humor, iris, retina, choroid, cornea) after topical ocular, subcutaneous and intravitreal administration
Format: in vivo, New Zealand White rabbits
Details: for Average Peak Concentration, Vitreous Humor: solution
Experimental: To measure the concentration of Compound 1 in plasma and ocular tissues following topical ocular, subcutaneous, and intravitreal administration, New Zealand White rabbits were administered Compound 1, and plasma and ocular samples were collected at pre-determined time points. Compound 1 formulations were prepared fresh on each day of dosing.
Ocular tissue samples from both eyes of each animal were collected and weights were recorded. Plasma and ocular tissue sample concentrations of Compound 1 were determined by LC-MS/MS.
New Zealand White rabbits weighing 2.5 to 3.5 kg were used on this study. Rabbits were housed one per cage. Animals were not fasted and only healthy animals with no ocular illness were used. Two rabbits per group were sacrificed at each of four ocular tissue sampling time points for a total of eight rabbits per group.
Animals were anesthetized for ocular (topical) and intravitreal dosing following the 12IA7 IACUC protocol. Each rabbit received a bolus dose of test formulation either via topical ocular administration 3 times daily on Days 1 and 2 (at 0, 6, and 12 hours), and once on Day 3 (at 0 hours) into both eyes; via intravitreal administration into both eyes once on Day 1 (at 0 hours); or via subcutaneous administration 2 times daily on Days 1 and 2 (at 0 and 8 hours) and once daily on Day 3 (at 0 hours). Doses were given within an approximately 1 hour window each day where applicable.
On Day 1, for intravitreal administration, or on Day 3, for topical ocular and subcutaneous administration, at the appropriate ocular tissue collection time points, animals were euthanized and both eyes were enucleated immediately. Following enucleation, each eye was rinsed with phosphate-buffered saline. Ocular tissue samples from both eyes of each animal were collected at predetermined time points and weights were recorded. All the samples were frozen immediately on dry ice, and stored at −60° C. to −80° C. pending bioanalysis.
An LC-MS/MS method was developed for the determination of Compound 1 in rabbit aqueous tissues (plasma, aqueous and vitreous humor) and solid ocular tissue samples. A pre-study standard curve was analyzed to determine the specificity, range, and lower limit of quantitation of the method. Plasma and tissue homogenate study samples were extracted and analyzed. All the samples were treated identically to the standards.
One eight-point standard curve was used in each analytical batch. To be accepted, each batch must have had at least five of eight standards with accuracy within ±20% of nominal, except at the lower limit of quantification (LLOQ), where ±25% was acceptable.
Concentration versus time data is plotted in FIGS. 3-16. All data are expressed as ng/g of the free drug. Samples that were below the limit of quantitation (0.2 ng/mL) were not used in the calculation of averages.

[1] = Group 1 topical ocular 1.2 mg/eye, 2.0 hr
[2] = Group 1 topical ocular 1.2 mg/eye, 4.0 hr
[3] = Group 2 subcutaneous 5 mg/kg, 0.5 hr
[4] = Group 2 subcutaneous 5 mg/kg, 1.0 hr
[5] = Group 2 subcutaneous 5 mg/kg, 2.0 hr
[6] = Group 2 subcutaneous 5 mg/kg, 4.0 hr
[7] = Group 4 intravitreal 2.5 mg per eye, 6.0 hr
[8] = Group 4 intravitreal 2.5 mg per eye, 24 hr
[9] = Group 4 intravitreal 2.5 mg per eye, 48 hr
[10] = Group 4 intravitreal 2.5 mg per eye, 72 hr

COC(=O)N[C@@H](Cc1ccccc1)C(=O)N[C@@H](Cc1ccc(NS(=O)(=O)O)cc1)c1csc(-c2cccs2)n1 [Compound 1 sodium salt]
Average Peak Concentration, Vitreous Humor (Group 1 topical ocular 0.70 mg/kg/dose): 0.61 ng/g
aqueous humor Conc., individual eyes (OD, OS) (Group 1 topical ocular 1.2 mg/eye, 0.5 hr): 3.44 ng/mL and 1.78 ng/mL and 12.8 ng/mL
aqueous humor Conc., individual eyes (OD, OS) (Group 1 topical ocular 1.2 mg/eye, 1.0 hr): 3.55 ng/mL and 3.05 ng/mL
aqueous humor Conc., individual eyes (OD, OS) [1]: 2.46 ng/mL and 14.5 ng/mL and 15.8 ng/mL
vitreous humor Conc., individual eyes (OD, OS) [1]: 1.14 ng/mL and 0.950 ng/mL
aqueous humor Conc., individual eyes (OD, OS) [2]: 5.48 ng/mL and 5.61 ng/mL and 7.78 ng/mL and 14.1 ng/mL
vitreous humor Conc., individual eyes (OD, OS) [2]: 1.09 ng/mL and 2.20 ng/mL and 0.551 ng/mL
Average Peak Concentration, Vitreous Humor (Group 2 subcutaneous 5 mg/kg/dose): 0.83 ng/g
aqueous humor Conc., individual eyes (OD, OS) [3]: 23.5 ng/mL and 24.6 ng/mL and 18.0 ng/mL and 38.2 ng/mL
vitreous humor Conc., individual eyes (OD, OS) [3]: 1.03 ng/mL and 0.537 ng/mL and 0.981 ng/mL
aqueous humor Conc., individual eyes (OD, OS) [4]: 4.51 ng/mL and 1.84 ng/mL and 3.22 ng/mL and 3.63 ng/mL
vitreous humor Conc., individual eyes (OD, OS) [4]: 0.252 ng/mL and 0.766 ng/mL and 0.442 ng/mL and 0.337 ng/mL
aqueous humor Conc., individual eyes (OD, OS) [5]: 0.498 ng/mL and 0.453 ng/mL
vitreous humor Conc., individual eyes (OD, OS) [5]: BLOQ (Below the limit of quantitation (0.2 ng/mL))
aqueous humor Conc., individual eyes (OD, OS) [6]: BLOQ (Below the limit of quantitation (0.2 ng/mL))
vitreous humor Conc., individual eyes (OD, OS) [6]: BLOQ (Below the limit of quantitation (0.2 ng/mL))
aqueous humor Conc., individual eyes (OD, OS) [7]: 77100 ng/mL and 75300 ng/mL and 79300 ng/mL
vitreous humor Conc., individual eyes (OD, OS) [7]: 1450000 ng/mL and 1480000 ng/mL and 432000 ng/mL
aqueous humor Conc., individual eyes (OD, OS) [8]: 5190 ng/mL and 6810 ng/mL
vitreous humor Conc., individual eyes (OD, OS) [8]: 295000 ng/mL and 406000 ng/mL and 259000 ng/mL
aqueous humor Conc., individual eyes (OD, OS) [9]: 1510 ng/mL and 2330 ng/mL and 1970 ng/mL
vitreous humor Conc., individual eyes (OD, OS) [9]: 82300 ng/mL and 68600 ng/mL and 91900 ng/mL
aqueous humor Conc., individual eyes (OD, OS) [10]: 23.2 ng/mL and 16.1 ng/mL and 49.7 ng/mL and 49.0 ng/mL
vitreous humor Conc., individual eyes (OD, OS) [10]: 13500 ng/mL and 11700 ng/mL and 14100 ng/mL
concentration at 6 hr (New Zealand White, rabbit, aqueous humor, other: intravitreal, 2.5 mg per eye, Group 4 intravitreal 2.5 mg per eye, 6.0 hr, read-out: aqueous humor Average Conc.): 80600 ng/g
concentration at 6 hr (New Zealand White, rabbit, aqueous humor, other: intravitreal, 2.5 mg per eye, Group 4 intravitreal 2.5 mg per eye, 6.0 hr, read-out: aqueous humor Conc., individual eyes (OD, OS)): 90600 ng/mL
concentration at 24 hr (New Zealand White, rabbit, aqueous humor, other: intravitreal, 2.5 mg per eye, Group 4 intravitreal 2.5 mg per eye, 24 hr, read-out: aqueous humor Average Conc.): 9000 ng/g
concentration at 24 hr (New Zealand White, rabbit, aqueous humor, other: intravitreal, 2.5 mg per eye, Group 4 intravitreal 2.5 mg per eye, 24 hr, read-out: aqueous humor Conc., individual eyes (OD, OS)): 4700 ng/mL
concentration at 48 hr (New Zealand White, rabbit, aqueous humor, other: intravitreal, 2.5 mg per eye, Group 4 intravitreal 2.5 mg per eye, 48 hr, read-out: aqueous humor Average Conc.): 1960 ng/g
concentration at 48 hr (New Zealand White, rabbit, aqueous humor, other: intravitreal, 2.5 mg per eye, Group 4 intravitreal 2.5 mg per eye, 48 hr, read-out: aqueous humor Conc., individual eyes (OD, OS)): 2040 ng/mL
concentration at 72 hr (New Zealand White, rabbit, aqueous humor, other: intravitreal, 2.5 mg per eye, Group 4 intravitreal 2.5 mg per eye, 72 hr, read-out: aqueous humor Average Conc.): 34.5 ng/g
concentration at 0.5 h (New Zealand White, rabbit, aqueous humor, subcutaneous, 5 mg/kg, Group 2 subcutaneous 5 mg/kg, 0.5 hr, read-out: aqueous humor Average Conc.): 26.1 ng/g
concentration at 1 h (New Zealand White, rabbit, aqueous humor, subcutaneous, 5 mg/kg, Group 2 subcutaneous 5 mg/kg, 1.0 hr, read-out: aqueous humor Average Conc.): 3.3 ng/g
concentration at 2 h (New Zealand White, rabbit, aqueous humor, subcutaneous, 5 mg/kg, Group 2 subcutaneous 5 mg/kg, 2.0 hr, read-out: aqueous humor Average Conc.): 0.72 ng/g
concentration at 2 h (New Zealand White, rabbit, aqueous humor, subcutaneous, 5 mg/kg, Group 2 subcutaneous 5 mg/kg, 2.0 hr, read-out: aqueous humor Conc., individual eyes (OD, OS)): 0.581 ng/mL
concentration at 0.5 hr (New Zealand White, rabbit, aqueous humor, topical, 1.2 mg/eye, Group 1 topical ocular 1.2 mg/eye, 0.5 hr, read-out: aqueous humor Average Conc.): 45.8 ng/g
concentration at 1 hr (New Zealand White, rabbit, aqueous humor, topical, 1.2 mg/eye, Group 1 topical ocular 1.2 mg/eye, 1.0 hr, read-out: aqueous humor Average Conc.): 15 ng/g
concentration at 1 hr (New Zealand White, rabbit, aqueous humor, topical, 1.2 mg/eye, Group 1 topical ocular 1.2 mg/eye, 1.0 hr, read-out: aqueous humor Conc., individual eyes (OD, OS)): 4.03 ng/mL
concentration at 2 h (New Zealand White, rabbit, aqueous humor, topical, 1.2 mg/eye, Group 1 topical ocular 1.2 mg/eye, 2.0 hr, read-out: aqueous humor Average Conc.): 31.6 ng/g
